Results reported in patent US10206394B2, “Herbicidal compounds” (Syngenta Participations AG, priority 2014, dated 2019).
Read-outs that look alike come from different tables or passages of the source.

Assays:
Format in all cases: in vivo
[1] = test system: Alopecurus myosuroides (ALOMY); experiment: Glasshouse assay for herbicidal activity (pre- and post-emergence), percentage phytotoxicity; conditions: Alopecurus myosuroides, Rate 250 g/ha, 100%=total damage, 0%=no damage
Summary of the method: (§1)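 Herbicide was applied to potted plants sown in standard soil, one day after sowing for PRE and after about 12 days for POST. Visual percentage damage ratings followed at 15 DAA (POST) and 20 DAA (PRE).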

Avena fatua (AVEFA) = experiment: as above; conditions: Avena fatua, Rate 250 g/ha, 100%=total damage, 0%=no damage
Summary of the method: as §1

[2] = test system: Echinochloa crus-galli (ECHCG); experiment: as above; conditions: Echinochloa crus-galli, Rate 250 g/ha, 100%=total damage, 0%=no damage
Summary of the method: as §1

Lolium perenne (LOLPE) = experiment: as above; conditions: Lolium perenne, Rate 250 g/ha, 100%=total damage, 0%=no damage
Summary of the method: as §1

[3] = test system: Winter Wheat variety 'Hereward'; experiment: Glasshouse assay for crop safety, post-emergence, +/- safener cloquintocet-mexyl (CQC), percentage phytotoxicity; conditions: 250 g/ha, evaluated after 13 days, 100=total damage, 0=no damage; for Post-emergence Crop Selectivity, percentage phytotoxicity, Wheat +CQC: with safener cloquintocet-mexyl (CQC) seed treatment 0.5 g/kg seed; for Post-emergence Crop Selectivity, percentage phytotoxicity, Wheat − CQC: without safener cloquintocet-mexyl (CQC)
Excerpt: Test—Glasshouse Assay for Crop Safety.
Seeds of the Winter Wheat variety ‘Hereward’ were seed treated with a wettable powder formulation of the cereal herbicide safener, cloquintocet mexyl, at a rate of 0.5 grams per kilogram of dry seed prior to the initiation of glasshouse testing. Three seeds were sown per 1.5 inch plastic pot into a sandy loam soil at a depth of 1 cm, 8 days prior to application of the test compounds and was watered and grown under controlled conditions in a glasshouse (at 24/16° C., day/night; 14 hours light; 65% humidity). The plants were sprayed Post-emergence with an aqueous spray solution derived from the formulation of the technical active ingredient in acetone/water (50:50) solution containing 0.5% Tween 20 (polyoxyethelyene sorbitan monolaurate, CAS RN 9005-64-5).
The test plants were then grown in a glasshouse under controlled conditions (at 24/16° C., day/night; 14 hours light; 65% humidity) and watered twice daily. After 13 days for pre and post-emergence, the test was evaluated (100=total damage to plant; 0=no damage to plant).

[4] = post-emergence, 360 h, post-emergence, assessed visually 15 DAA, read-out: Post-emergence herbicidal activity (percentage phytotoxicity) ALOMY POST
[5] = pre-emergence, 480 h, pre-emergence, assessed visually 20 DAA, read-out: Pre-emergence herbicidal activity (percentage phytotoxicity) ALOMY PRE
[6] = post-emergence, 360 h, post-emergence, assessed visually 15 DAA, read-out: Post-emergence herbicidal activity (percentage phytotoxicity) AVEFA POST
[7] = pre-emergence, 480 h, pre-emergence, assessed visually 20 DAA, read-out: Pre-emergence herbicidal activity (percentage phytotoxicity) AVEFA PRE
[8] = post-emergence, 360 h, post-emergence, assessed visually 15 DAA, read-out: Post-emergence herbicidal activity (percentage phytotoxicity) ECHCG POST
[9] = pre-emergence, 480 h, pre-emergence, assessed visually 20 DAA, read-out: Pre-emergence herbicidal activity (percentage phytotoxicity) ECHCG PRE
[10] = post-emergence, 360 h, post-emergence, assessed visually 15 DAA, read-out: Post-emergence herbicidal activity (percentage phytotoxicity) LOLPE POST
[11] = pre-emergence, 480 h, pre-emergence, assessed visually 20 DAA, read-out: Pre-emergence herbicidal activity (percentage phytotoxicity) LOLPE PRE

SMILES | pest or weed control at 250 g/ha [1, 4] [%] | pest or weed control at 250 g/ha [1, 5] [%] | pest or weed control at 250 g/ha (Avena fatua (AVEFA); [6]) [%] | pest or weed control at 250 g/ha (Avena fatua (AVEFA); [7]) [%] | pest or weed control at 250 g/ha [2, 8] [%] | pest or weed control at 250 g/ha [2, 9] [%] | pest or weed control at 250 g/ha (Lolium perenne (LOLPE); [10]) [%] | pest or weed control at 250 g/ha (Lolium perenne (LOLPE); [11]) [%] | Post-emergence Crop Selectivity, percentage phytotoxicity, Wheat +CQC [3] [%] | Post-emergence Crop Selectivity, percentage phytotoxicity, Wheat − CQC [3] [%]
Cc1cc(C)c(C2C(=O)CC(CC(=O)NCC(C)C)C2=O)c(C)c1 (stereo not shown) [Compound A5] | 90 | 100 | 80 | 70 | 80 | 100 | 80 | 100 | 10 | 80
Cc1cc(-n2cc(Cl)cn2)cc(C)c1C1C(=O)CC(CC(=O)NC(C)(C)C)C1=O (stereo not shown) [Compound A67, N-tert-butyl-2-[3-[4-(4-chloropyrazol-1-yl)-2,6-dimethyl-phenyl]-2,4-dioxo-cyclopentyl]acetamide] | 80 | 100 | 80 | 90 | 100 | 90 | 70 | 90 | 0 | 70
Cc1cc(C)c(C2C(=O)CC(CC(=O)NCc3ccccc3)C2=O)c(C)c1 (stereo not shown) [Compound A4] | 50 | 50 | 80 | 30 | 80 | 70 | 90 | 80 | 10 | 60
Cc1cc(C)c(C2C(=O)CC(CC(=O)NC(C)C)C2=O)c(C)c1 (stereo not shown) [Compound A7] | 90 | 80 | 90 | 60 | 100 | 90 | 100 | 100 | 20 | 30
CCC(C)NC(=O)CC1CC(=O)C(c2c(C)cc(C)cc2C)C1=O (stereo not shown) [Compound A3] | 90 | 100 | 90 | 90 | 90 | 100 | 90 | 100 | 10 | 60
Cc1cc(-c2ncc(F)cn2)cc(C)c1C1C(=O)CC(CC(=O)NCc2cccc(Cl)c2)C1=O (stereo not shown) [Compound A138] | 90 | 90 | 100 | 100 | 100 | 100 | 100 | 100 | 40 | 70
Cc1cc(C)c(C2C(=O)CC(CC(=O)NCCc3ccccc3)C2=O)c(C)c1 (stereo not shown) [Compound A1, 2-[2,4-dioxo-3-(2,4,6-trimethylphenyl)cyclopentyl]-N-phenethyl-acetamide] | 60 | 60 | 60 | 60 | 80 | 90 | 80 | 100 | 0 | 60
Cc1cc(C)c(C2C(=O)CC(CC(=O)NCc3cccs3)C2=O)c(C)c1 (stereo not shown) [Compound A6] | 90 | 90 | 90 | 60 | 90 | 100 | 90 | 100 | 10 | 70
Cc1cc(C)c(C2C(=O)CC(CC(=O)NC3(c4ccccn4)CC3)C2=O)c(C)c1 (stereo not shown) [Compound A18] | 70 | 60 | 50 | 20 | 70 | 60 | 80 | 60 | 20 | 70
Cc1cc(-c2cncnc2)cc(C)c1C1C(=O)CC(CC(=O)NCc2cccc(Cl)c2)C1=O (stereo not shown) [Compound A142] | – | 0 | – | 0 | 60 | 30 | 20 | 20 | 50 | 70
Cc1cc(-c2ncc(F)cn2)cc(C)c1C1C(=O)CC(CC(=O)NCc2cccc(C(F)(F)F)c2)C1=O (stereo not shown) [Compound A145] | 100 | 100 | 100 | 100 | 100 | 100 | 90 | 100 | 30 | 60
Cc1cc(C)c(C2C(=O)CC(CC(=O)NCC(C)(C)C)C2=O)c(C)c1 (stereo not shown) [Compound A14] | 80 | 90 | 70 | 70 | 80 | 100 | 80 | 80 | 10 | 60
Cc1cc(-c2ncc(F)cc2F)cc(C)c1C1C(=O)CC(CC(=O)NC(C)(C)C)C1=O (stereo not shown) [Compound A85] | 100 | 100 | 100 | 80 | 100 | 90 | 90 | 100 | 10 | 80
C#Cc1cc(C)c(C2C(=O)CC(CC(=O)NC(C)(C)C)C2=O)c(C)c1 (stereo not shown) [Compound A43] | 100 | 100 | 90 | 100 | 90 | 100 | 90 | 100 | 50 | 90
Cc1cc(C)c(C2C(=O)CC(CC(=O)NCC3CC3)C2=O)c(C)c1 (stereo not shown) [Compound A19] | 90 | 90 | 80 | 70 | 80 | 90 | 90 | 90 | 40 | 80
